Reference: US20250000834A1, “COMPOSITIONS AND METHODS FOR TARGETING GPCR FOR THE PREVENTION AND TREATMENT OF PAIN” (Duke University, priority 2021, published 2025)

Experiments:
hGPR37L1 = target: T1, hGPR37L1 (Homo sapiens, UniProt O60883); assay: cAMP BRET assay in HEK293 cells co-transfected with GPR37L1 and cAMP BRET cDNAs; assay type: cell-based; details: 10 nM
T1 sequence (O60883 26-481): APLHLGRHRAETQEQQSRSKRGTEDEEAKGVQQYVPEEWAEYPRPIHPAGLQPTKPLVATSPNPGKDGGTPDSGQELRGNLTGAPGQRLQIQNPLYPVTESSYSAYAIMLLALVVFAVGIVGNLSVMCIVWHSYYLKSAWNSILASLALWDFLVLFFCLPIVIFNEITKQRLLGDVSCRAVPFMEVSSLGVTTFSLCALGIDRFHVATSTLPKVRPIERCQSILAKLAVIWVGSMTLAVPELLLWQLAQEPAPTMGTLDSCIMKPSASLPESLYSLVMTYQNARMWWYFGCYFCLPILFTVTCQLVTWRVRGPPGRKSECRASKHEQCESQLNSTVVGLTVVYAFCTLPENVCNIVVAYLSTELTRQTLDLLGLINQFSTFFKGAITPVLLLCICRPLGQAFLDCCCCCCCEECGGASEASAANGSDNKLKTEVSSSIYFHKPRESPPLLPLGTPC
Protocol: cAMP BRET assay: To detect cAMP change after GPCR37L1 activation, we transfected a Nano-lantern cAMP plasmid (1 μg) and human GPR37L1-tango plasmid (1 μg) into HEK-293 cells. BRET activity was measured upon the addition of 100 μl/well for a final concentration of 10 μM Coelenterazine (Santa Cruz Biotechnology, Dallas, TX), 10 nM MaR1, DHA or vehicle, and 100 μM forskolin (Enzo Life Sciences (Farmingdale, NY), #BML-CN100). The luminescent activity was measured using an Infinite F200 Pro Illuminometer (Tecan Trading AG, Switzerland). The luminescent activity was normalized to basal signal levels.
Eight different concentrations of compounds ranging from 0.1 nM to 100 nM were tested.

[1] = tested on: neuron-glia mixed cultures from DRG; assay: IL-1β release in SGC-neuron co-cultures from DRG (ELISA); assay type: cell-based, mouse; details: 100 nM, cells from WT mice, 1 μM paclitaxel 24 h
Protocol: SGC and neuron co-culture: DRG were collected from wild-type (WT) or knock-out (KO) mice (8 weeks male) and incubated in 1 mg/ml Collagenase/Dispase (Roche Diagnostics, Madison, WI, USA) at 37° C. for 60 min, with agitation at 100 revolutions per minute (RPM) and then followed by incubation in 0.05% trypsin/EDTA for 10 min. The digestion enzymes were prepared in Dulbecco's modified Eagle medium/F12 with GlutaMAX (ThermoFisher, Waltham, MA). After incubation of 0.1% trypsin inhibitor and centrifugation (300 G), the cell pellet was gently triturated in a neurobasal medium containing […]. Dissociated DRG cells were seeded on non-coated culture dishes for 4 hrs. SGC and neurons were included for co-culture by hand-shaking of the culture flasks gently for 5 to 10 min and then resuspended by replacing with a new neurobasal medium. The attached glial-like cells were cultured in the DMEM/F12 medium containing 10% fetal bovine serum and 1% streptomycin/penicillin to promote cell growth and inhibition of differentiation. After 2 to 6 days, the glial-like cells were differentiated by application of the serum-free neural basal medium. […]

In the case of `CC/C=C\C/C=C\C[C@H](O)\C=C/C=C/C=C/[C@H](O)C/C=C\CCC(=O)O` [MaR1, Maresin 1], the “inhibition of forskolin-induced cAMP production” value (hGPR37L1) is reported as “significantly inhibited” and the “effect on paclitaxel-induced IL-1β secretion” value [1] is reported as “blocked”.
